{"source": "patent US12702667B2", "about": "“Focal adhesion kinase inhibitor as a therapeutic agent in diabetes” (University of Pittsburgh—Of the Commonwealth System of …, priority 2017, dated 2026)", "key": {"pancreatic acinar cells": {"test_system": "pancreatic acinar cells", "assay": "Acinar lineage tracing (tomato-red label, immunofluorescence) in E1aCreERT2;R26-CAG^Tomato mice treated with FAKi", "assay_type": "in vivo", "text": "Rosa26^CAGTomato (B6.Cg-Gt(Rosa)26Sortm9(CAG-tdTomato)Hze) (Madisen et al., 2010), FAK^fl/fl (Cai et al., 2012), and wild type C57bl/6 mice were purchased from The Jackson Laboratory (Bar Harbor, ME). PdxCre (Criscimanna et al., 2011; Hingorani et al., 2003) mice were obtained from the Mouse Models of Human Cancer Consortium. The E1aCreERT2 strain (Criscimanna et al., 2014; Criscimanna et al., 2011) was generated as previously described (Ji, B. et al., Robust acinar cell transgene expression of CreErT via BAC recombineering, Genesis, 46, 390-395et al (2008)). The FAK-floxed strain (B6; 129X1-Ptk2tm1Lfr/Mmucd) was obtained from the Mutant Mouse Regional Resource Centers (MMRRC).\nImmunofluorescence Analysis: Tissue processing, immunostaining, and quantification analysis were performed as previously described (Criscimanna et al., 2011; incorporated by reference in its entirety herein). Imaging was performed using either ZEISS Axiolmager.Z1 or ZEISS LSM 710 microscopes.\nTamoxifen treatment: E1aCreERT;R26-CAG^Tomato mice were injected intraperitoneally with 2 mg tamoxifen on two consecutive days.\n(§1) FAKi treatment: FAKi (PF562271; 50 mg/kg) was given orally to mice twice a day for 3 weeks.\nCre-recombinase activity was specifically targeted to the pancreatic acinar cells and their potential progenies. […] The mouse strains are E1aCreERT2;R26-CAG^Tomato, created by crossing the E1aCreERT2 into R26^Tomato mice. Pancreatic acinar cells are exclusively tomato-positive. Mice were treated with PF562271 FAKi. The indicated area in FIG. 2B highlights tomato-negative endocrine islet of Langerhans."}, "[1]": {"test_system": "STZ-treated E1aCreERT2; R26^Tomato mice", "assay": "Induced diabetes mouse model (streptozotocin), blood glucose and islet immunostaining after FAKi treatment", "assay_type": "in vivo", "settings": "for acinar-derived, insulin-producing cells among beta cells that survived STZ treatment: 7 weeks after STZ treatment and 3 weeks after FAKi treatment", "protocol": "as §1\nE1aCreERT2; R26^Tomato mice were treated with streptozotocin (STZ), a widely used compound that kills β-cells and, thus, induces diabetes in mice. […] Thus, in the DMSO-treated cohort, recovery was detected in 3/10 mice. […]\nThe mice were treated for two additional weeks following blood glucose normalization. The bar embedded in the graph of FIG. 5 indicates the duration of FAKi treatment. […] FAKi (50 mg/kg) was given orally to mice twice a day for 3 weeks."}}, "note": "“Also recorded” adds a separate entry of the source."}
{"compound": "CN(c1ncccc1CNc1nc(Nc2ccc3c(c2)CC(=O)N3)ncc1C(F)(F)F)S(C)(=O)=O.O=S(=O)(O)c1ccccc1", "note": "[PF562271]", "values": [{"measurement": "conversion of acinar cells into insulin-producing cells (tomato-red labeled insulin-expressing cells)", "setting": "pancreatic acinar cells; 50 mg/kg orally twice a day for three weeks", "result": "induces conversion of acinar cells into insulin-producing cells"}, {"measurement": "Glut2 expression of the acinar-derived insulin-positive cells", "setting": "pancreatic acinar cells; FAKi treated", "result": "also expressed Glut2"}, {"measurement": "amylase expression of the acinar-derived insulin-positive cells", "setting": "pancreatic acinar cells; treatment for three weeks", "result": "no longer express amylase; also recorded: no longer expressed amylase"}, {"measurement": "location of the acinar-derived insulin-positive cells", "setting": "pancreatic acinar cells; treatment for three weeks", "result": "embedded within preexisting islets"}, {"measurement": "acinar-derived, insulin-producing cells among beta cells that survived STZ treatment", "setting": "[1]", "result": "could be detected among pre-existing beta-cells"}, {"measurement": "acinar-derived, insulin-producing cells among beta cells that survived STZ treatment", "setting": "[1]; listed as FAKi", "result": "could be detected among pre-existing beta cells"}, {"measurement": "mice whose blood glucose levels decreased to normal levels", "setting": "[1]; STZ-treated mice, 50 mg/kg orally twice a day for 3 weeks, DMSO cohort recovery 3/10", "result": "9/10"}, {"measurement": "blood glucose after FAKi treatment ceased", "setting": "[1]; STZ-treated mice, after 3 weeks of 50 mg/kg orally twice a day", "result": "remained at normal levels up to a month"}, {"measurement": "blood glucose", "setting": "[1]; STZ-treated mice, one week after FAKi treatment (mice treated for 3 weeks)", "result": "decrease in blood glucose to normal levels"}]}
